Test results as given in patent US20060194805A1, “Capsaicin receptor agonists” (Neurogen Corporation, priority 2003, published 2006).

Molecular target: T1, human capsaicin receptor (Homo sapiens, UniProt Q8NER1)
T1 construct: transfected with the pBK-CMV expression construct encoding the full length human capsaicin receptor; expressed in transfected cells
Assay: Calcium mobilization assay (determination of agonist activity), Example 7
Format: cell-based
Conditions: for EC50: HEK293 cells expressing human capsaicin receptor, FLUO-3 calcium fluorescence, read-out: EC50, capsaicin receptor agonist activity as described in Example 7
Text: A cDNA encoding full length human capsaicin receptor (SEQ ID NO:1, 2 or 3 of U.S. Pat. No. 6,482,611) was subcloned in the plasmid pBK-CMV (Stratagene, La Jolla, Calif.) for recombinant expression in mammalian cells.
Human embryonic kidney (HEK293) cells were transfected with the pBK-CMV expression construct encoding the full length human capsaicin receptor using standard methods. […] Independent clones were isolated from this pool by limiting dilution to obtain clonal stable cell lines for use in subsequent experiments.
The culture medium is emptied from the 96 well plates and FLUO-3 AM calcium sensitive dye (Molecular Probes, Eugene, Oreg.) is added to each well (dye solution: 1 mg FLUO-3 AM, 440 μL DMSO and 440 μl 20% pluronic acid in DMSO, diluted 1:250 in Krebs-Ringer HEPES (KRH) buffer (25 mM HEPES, 5 mM KCl, 0.96 mM NaH2PO4, 1 mM MgSO4, 2 mM CaCl2, 5 mM glucose, 1 mM probenecid, pH 7.4), 50 μl diluted solution per well). Plates are covered with aluminum foil and incubated at 37° C. for 1-2 hours in an environment containing 5% CO2.
To measure the ability of a test compound to agonize or antagonize a calcium mobilization response in cells expressing capsaicin receptors to capsaicin or other vanilloid agonist, the EC50 of the agonist capsaicin is first determined. An additional 20 μl of KRH buffer and 1 μl DMSO is added to each well of cells, prepared as described above. 100 μl capsaicin in KRH buffer is automatically transferred by the FLIPR instrument to each well. Capsaicin-induced calcium mobilization is monitored using either FLUOROSKAN ASCENT (Labsystems; Franklin, Mass.) or FLIPR (fluorometric imaging plate reader system; Molecular Devices, Sunnyvale, Calif.) instruments. Data obtained between 30 and 60 seconds after agonist application are used to generate an 8-point concentration response curve, with final capsaicin concentrations of 1 nM to 3 μM. […] software (Synergy Software, Reading, Pa.) is used to fit the data to the equation: y=a*(1/(1+(b/x)c)) to determine the 50% excitatory concentration (EC50) for the response. In this equation, y is the maximum fluorescence signal, x is the concentration of the agonist or antagonist (in this case, capsaicin), a is the Emax, b corresponds to the EC50 value and c is the Hill coefficient. Determination of Agonist Activity
Test compounds are dissolved in DMSO, diluted in KRH buffer, and immediately added to cells prepared as described above. […] The final concentration of test compounds in the assay wells is between 0.1 nM and 5 μM.
The ability of a test compound to act as an agonist of the capsaicin receptor is determined by measuring the fluorescence response of cells expressing capsaicin receptors elicited by the compound as function of compound concentration.

T1 sequence (Q8NER1 whole entry): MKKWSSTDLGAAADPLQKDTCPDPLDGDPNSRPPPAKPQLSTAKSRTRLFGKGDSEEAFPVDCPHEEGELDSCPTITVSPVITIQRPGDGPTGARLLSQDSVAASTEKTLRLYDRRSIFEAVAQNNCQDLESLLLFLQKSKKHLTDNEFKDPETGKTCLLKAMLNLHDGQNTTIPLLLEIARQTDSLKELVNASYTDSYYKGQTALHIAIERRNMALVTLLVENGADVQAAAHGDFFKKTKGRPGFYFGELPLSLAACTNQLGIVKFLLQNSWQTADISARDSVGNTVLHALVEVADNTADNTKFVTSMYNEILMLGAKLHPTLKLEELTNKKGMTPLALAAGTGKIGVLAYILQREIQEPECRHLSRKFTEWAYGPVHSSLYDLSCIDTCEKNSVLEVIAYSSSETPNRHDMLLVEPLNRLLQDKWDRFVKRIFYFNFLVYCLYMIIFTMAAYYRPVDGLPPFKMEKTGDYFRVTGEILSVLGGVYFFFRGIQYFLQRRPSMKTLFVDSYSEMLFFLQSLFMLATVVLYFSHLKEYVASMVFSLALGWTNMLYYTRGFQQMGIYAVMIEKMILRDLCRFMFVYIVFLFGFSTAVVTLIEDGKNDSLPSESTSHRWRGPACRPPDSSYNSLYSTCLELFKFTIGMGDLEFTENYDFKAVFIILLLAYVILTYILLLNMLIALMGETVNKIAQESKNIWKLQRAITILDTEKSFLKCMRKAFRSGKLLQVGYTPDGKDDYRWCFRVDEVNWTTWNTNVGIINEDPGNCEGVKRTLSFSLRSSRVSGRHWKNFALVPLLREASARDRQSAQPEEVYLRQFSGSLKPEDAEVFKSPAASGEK

| Compound | EC50 | EC90 (capsaicin positive control, calcium mobilization, read-out: approximate EC90 concentration) |
| --- | --- | --- |
| O=C(NCc1ccccc1)c1cc(-c2cccc(Cl)c2)nc2ccncc12 [Compound 65, 2-(3-chloro-phenyl)-[1, 6]-naphthyridine-4-carboxylic acid benzylamide] | < 1000 nM | – |
| CC(C)(C)c1cc(Nc2ncnc3cc(Br)cnc23)no1 [Compound 2] | < 1000 nM | – |
| C[C@@H]1CN(Cc2nc(Nc3ccc(C(C)(C)C)cc3)c3ccc(C(F)(F)F)cc3n2)C[C@H](C)O1 [Compound 3, (4-t-butyl-phenyl)-[2-(cis-2,6-dimethyl-morpholin-4-ylmethyl)-7-trifluoromethyl-quinazolin-4-yl)-amine] | < 1000 nM | – |
| CCCn1c(CN(Cc2ccc(Cl)cc2Cl)Cc2c(OCC)ccc3ccccc23)nc2cc(F)ccc21 [Compound 55] | < 1000 nM | – |
| FC(F)(F)c1ccc(Nc2ncnc3cc(Br)ccc23)nc1 [Compound 1, (7-bromo-quinazolin-4-yl)-(5-trifluoromethyl-pyridin-2-yl)-amine] | < 1000 nM | – |
| COc1cc(CNC(=O)CCCC/C=C/C(C)C)ccc1O [capsaicin] | – | ~100 nM |
